Where two headings read alike, the source gives them in different places.
What was measured:
PfENT1 [1] = molecular target: T1, PfENT1 (Plasmodium falciparum, UniProt Q8IDM6); assay type: cell-based; details: each compound at 10 µM; 125 µM 5-FUrd
PfENT1 [2] = molecular target: T1, PfENT1; details: cited from earlier work
PfENT1 [3] = molecular target: T1, PfENT1; experiment: cell-based; details: 125 µM 5-FUrd
PfENT1 [4] = molecular target: T1, PfENT1; assay type: cell-based
PfENT1 [5] = molecular target: T1, PfENT1; experiment: [3H]adenosine uptake into ade2Δ + PfENT1-CO yeast; assay type: cell-based
[6] = system: chloroquine-resistant Dd2 parasites; experiment: Dd2 parasite viability / proliferation; assay type: cell-based, Plasmodium falciparum; details: for IC50: Plasmodium falciparum, DD2, read-out: IC50 Dd2 parasite viability – high purine media; for IC50 with xanthine as purine source versus hypoxanthine: WT Dd2, 90 µM xanthine vs 10 µM hypoxanthine as sole purine source
PfENT4 = experiment: [14C]2-deoxyadenosine uptake into PfENT4-expressing Xenopus oocytes; assay type: cell-based, Plasmodium falciparum; details: concentrations up to 50 µM
P. falciparum 3D7 strain = experiment: 3D7 parasite viability / proliferation, 72-h growth assay; details: ~10× the IC50 concentration; first 24 h of culture
[7] = system: fui1Δ::PfENT1-HA-CO strain; experiment: 5-FUrd growth inhibition of PfENT1-HA-CO expressing fui1Δ yeast; assay type: cell-based; details: Saccharomyces cerevisiae, read-out: 5-FUrd IC50, yeast cell growth, growth assessed by OD600
[8] = EC50 5-FUrd growth rescue of fui1Δ::PfENT1-HA-CO, mean ± SD, N ≥ 3

T1 sequence (Q8IDM6 whole entry): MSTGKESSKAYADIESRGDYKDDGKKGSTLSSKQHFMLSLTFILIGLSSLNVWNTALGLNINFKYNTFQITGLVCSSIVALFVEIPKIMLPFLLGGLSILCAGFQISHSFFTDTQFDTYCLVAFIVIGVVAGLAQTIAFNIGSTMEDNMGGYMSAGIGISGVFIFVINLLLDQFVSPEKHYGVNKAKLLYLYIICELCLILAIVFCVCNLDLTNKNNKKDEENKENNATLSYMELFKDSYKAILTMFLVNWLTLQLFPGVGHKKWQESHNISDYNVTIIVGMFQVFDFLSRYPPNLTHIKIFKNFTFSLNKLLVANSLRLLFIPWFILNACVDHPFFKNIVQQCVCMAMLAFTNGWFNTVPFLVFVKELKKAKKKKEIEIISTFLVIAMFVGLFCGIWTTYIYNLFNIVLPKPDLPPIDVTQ

Compound | EC50 (PfENT1 [3]; [8]) [µM] | IC50 (PfENT1 [4]) [µM] | IC50 [6] [µM] | IC50 with xanthine as purine source versus hypoxanthine [6] | other results
OCCN(CCO)c1nc(N2CCCCC2)c2nc(N(CCO)CCO)nc(N3CCCCC3)c2n1 [dipyridamole] |  |  |  |  | HTS outcome (positive = growth > four SD above no-growth control) (PfENT1 [1]): not positive; block of PfENT1 (PfENT1 [2]): do not block
Cc1ccccc1/C=C/c1nc2ccccc2c(=O)[nH]1 [Compound 13, 2-[2-(2-methylphenyl)vinyl]-4(3H)-quinazolinone] | 4.7 ± 2.9 | 0.6 ± 0.1 | 2.6 ± 0.2 |  | IC50 (PfENT1 [5]): 0.0039 ± 0.0016 µM
O=C(Nc1cccc(-c2nc3ncccc3o2)c1)c1cccc(F)c1 [Compound 6, 3-fluoro-N-(3-[1,3]oxazolo[4,5-b]pyridin-2-ylphenyl)benzamide] | 5.7 ± 1.3 | 1.1 ± 0.1 | 38.8 ± 4.9 |  | 
OC[C@H]1O[C@@H](n2cnc3c(O)ncnc32)[C@H](O)[C@@H]1O [Inosine, inosine, reference compound] |  |  |  |  | EC50 (PfENT1 [3]; EC50 rescue of fui1Δ::PfENT1-HA-CO strain growth, OD600): 3300 ± 200 µM; EC50 (PfENT1 [3]; EC50 rescue of fui1Δ::PfENT1-HA-CO strain growth, fluorescence): 5600 ± 2100 µM
COc1cc(COc2ccc3c(C)cc(=O)oc3c2)cc(OC)c1OC [Compound 3, 4-methyl-7-[(3,4,5-trimethoxybenzyl)oxy] -2H-chromen-2-one] | 2.3 ± 0.9 | 0.6 ± 0.1 | 36.2 ± 6 | significantly lower | inhibition of [14C]2-deoxyadenosine uptake (PfENT4): did not inhibit; parasite stage progression (microscopy) (P. falciparum 3D7 strain): failed to progress beyond the ring stage
O=c1[nH]c(=O)n([C@@H]2O[C@H](CO)[C@@H](O)[C@H]2O)cc1F [5-FUrd, 5-fluorouridine] |  |  |  |  | IC50 [7]: 7 ± 2 µM
Cn1cc(C(=O)C(=O)Nc2ccc(C(=O)N3CCCC3)cc2)c2ccccc21 [Compound 5, 2-(1-methyl-1H-indol-3-yl)-2-oxo-N-[4-(pyrrolidin-1-ylcarbonyl)phenyl]acet amide] | 6.5 ± 1.5 | 2 ± 0.01 | 28.9 ± 2.6 | significantly lower | 
O=C(Nc1ccc2nc(NC(=O)c3ccco3)sc2c1)c1ccco1 [Compound 1, N,N'-1,3-benzothiazole-2,6-diyldi(2-furamide)] | 0.8 | 0.2 ± 0.1 | 25.8 ± 1.3 | significantly lower | 
COc1ccccc1C(=O)Nc1cccc(-c2nc3ncccc3o2)c1 [Compound 7, 2-methoxy-N-(3-[1,3]oxazolo[4,5-b]pyridin-2-ylphenyl)benzamide] | 6.4 ± 0.9 | 1.6 ± 0.01 | 31 ± 0.6 |  | 
O=C(Nc1ccc(-c2nnc(-c3ccco3)o2)cc1)c1ccco1 [Compound 4, N-{4-[5-(2-furyl)-1,3,4-oxadiazol-2-yl]phenyl}-2-furamide] | 5.7 ± 0.8 | 1.7 ± 0.4 | 15.3 ± 2.7 |  | 
O=C(Nc1ccc(-c2nc3ncccc3o2)cc1)c1ccccc1Br [Compound 2, 2-bromo-N-(4-[1,3]oxazolo[4,5-b]pyridin-2-ylphenyl)benzamide] | 6 ± 1.7 | 2.1 ± 0.9 | 52.4 ± 5.7 | significantly lower | 
O=[N+]([O-])c1ccc(CSc2ncnc3c2ncn3C2OC(CO)C(O)C2O)cc1 (stereo not shown) [nitrobenzylthioinosine] |  |  |  |  | block of PfENT1 (PfENT1 [2]): do not block
O=C(Nc1ccc(Cl)c(-c2nc3ncccc3o2)c1)c1cccs1 [Compound 19, N-(4-chloro-3-[1,3]oxazolo[4,5-b]pyridin-2-ylphenyl)-2-thiophenecarboxamide] | 5.4 ± 0.8 | 1.7 ± 0.2 | 37.4 ± 1.6 |  | 

— paper PMC4369170 (ACS chemical biology, 2015)
